# Test results taken from patent US10851069B2, “Compositions of crystallized hydrophobic compounds and methods of making and using same” (Massachusetts Institute of Technology, priority 2016, dated 2020).
# Legend:
# C57BL/6 mice [1] = assay: Crystalline drug-loaded alginate capsules, long-term IP/SC implantation, prevention of fibrosis; type: in vivo; conditions: crystalline form in alginate capsules, retrieved after 1, 3 and 6 months from IP space
# Description: Lead compounds identified by screening the amorphous formulations (e.g., compounds of Formulae I-X, particularly LY215799, Dx, Curcumin, GW2580, QNZ and Ki20227) were studied for long-term release and prevention of fibrosis following encapsulation in crystalline form and implantation into the intraperitoneal (IP) space of C57BL/6 mice for long term testing. […] Drug extraction analysis by HPLC also determined that notable percentages (e.g., more than 50%) of the loaded drug remained within the retrieved capsules (FIG. 22D), particularly in the subcutaneous implanted samples. […] In contrast, capsules retrieved from the IP space 6 months post-implantation were identified with only 2-40% of the loaded drug remaining within the retrieved capsules.
# All animal protocols were approved by the MIT Committee on Animal Care, and all surgical procedures and post-operative care was supervised by MIT Division of Comparative Medicine veterinary staff. Immune-competent male non-diabetic or STZ-induced diabetic C57BL/6 mice (Jackson Laboratory, Bar Harbor, Me.) were anesthetized with 3% isoflurane in oxygen and had their abdomens shaved and sterilized using betadine and isopropanol. Preoperatively, all mice also received a 0.05 mg/kg dose of buprenorphine subcutaneously as a pre-surgical analgesic, along with 0.3 mL of 0.9% saline subcutaneously to prevent dehydration. A […] incision was made along the midline of the abdomen and the peritoneal lining was exposed using blunt dissection. The peritoneal wall was then grasped with forceps and a 0.5-1 mm incision was made along the linea alba. A desired volume of spheres (all materials without islets, as well as SLG20 spheres encapsulating rat islets) were then loaded into a sterile pipette and implanted into the peritoneal cavity through the incision. The incision was then closed using 5-0 taper-tipped polydioxanone (PDS II) absorbable sutures. The skin was then closed over the incision using a wound clip and tissue glue.
# At desired time points post-implantation or transplantation (with encapsulated islets), as specified in figures, mice were euthanized by CO2 administration, followed by cervical dislocation. In certain instances, 5 ml of ice cold PBS was first injected in order perform an intraperitoneal lavage to rinse out and collect free-floating intraperitoneal immune cells. An incision was then made using the forceps and scissors along the abdomen skin and peritoneal wall, and intraperitoneal lavage volumes were pipetted out into fresh 15 ml falcon tubes (each prepared with 5 ml of RPMI cell culture media). Next, a wash bottle tip was inserted into the abdominal cavity. KREBS buffer was then used to wash out all material spheres from the abdomen and into petri dishes for collection. After ensuring all the spheres were washed out or manually retrieved (if fibrosed directly to intraperitoneal tissues), they were transferred into 50 mL conical tubes for downstream processing and imaging. After intraperitoneal lavage and sphere retrieval, remaining fibrosed intraperitoneal tissues were also excised for downstream FACS and expression analyses.
# For phase contrast imaging, retrieved materials were gently washed using Krebs buffer and transferred into 35 mm petri dishes for phase contrast microscopy using an Evos X1 microscope (Advanced Microscopy Group).
# Immunofluorescence imaging was used to determine immune populations attached to spheres. […]
# C57BL/6 mice [2] = assay: Naked (non-encapsulated) drug crystals injected IP with 500 μm alginate spheres, 2 weeks; type: in vivo
# Protocol: Naked crystals of GW2580 or saline-only (no drug control) were delivered intraperitoneally along with 500 μm alginate spheres for 2 weeks to C57BL/6 mice. […] Brightfield and fluorescence imaging was used to emphasize the respective presence or lack of fibrotic overgrowth on retrieved alginate spheres from either saline (control) or crystalline GW2580 treatment groups (FIG. 17C). […] GW2580 crystal testing (at doses of 0.5 and 5 mg/SC site) was also extended into the SC implant space with other immunogenic materials, ceramic glass (GL) and polymer polystyrene (PS). […] All animal protocols were approved by the MIT Committee on Animal Care, and all surgical procedures and post-operative care was supervised by MIT Division of Comparative Medicine veterinary staff. Immune-competent male non-diabetic or STZ-induced diabetic C57BL/6 mice (Jackson Laboratory, Bar Harbor, Me.) were anesthetized with 3% isoflurane in oxygen and had their abdomens shaved and sterilized using betadine and isopropanol. Preoperatively, all mice also received a 0.05 mg/kg dose of buprenorphine subcutaneously as a pre-surgical analgesic, along with 0.3 mL of 0.9% saline subcutaneously to prevent dehydration. A […] incision was made along the midline of the abdomen and the peritoneal lining was exposed using blunt dissection. The peritoneal wall was then grasped with forceps and a 0.5-1 mm incision was made along the linea alba. A desired volume of spheres (all materials without islets, as well as SLG20 spheres encapsulating rat islets) were then loaded into a sterile pipette and implanted into the peritoneal cavity through the incision. The incision was then closed using 5-0 taper-tipped polydioxanone (PDS II) absorbable sutures. The skin was then closed over the incision using a wound clip and tissue glue. At desired time points post-implantation or transplantation (with encapsulated islets), as specified in figures, mice were euthanized by CO2 administration, followed by cervical dislocation. In certain instances, 5 ml of ice cold PBS was first injected in order perform an intraperitoneal lavage to rinse out and collect free-floating intraperitoneal immune cells. An incision was then made using the forceps and scissors along the abdomen skin and peritoneal wall, and intraperitoneal lavage volumes were pipetted out into fresh 15 ml falcon tubes (each prepared with 5 ml of RPMI cell culture media). Next, a wash bottle tip was inserted into the abdominal cavity. KREBS buffer was then used to wash out all material spheres from the abdomen and into petri dishes for collection. After ensuring all the spheres were washed out or manually retrieved (if fibrosed directly to intraperitoneal tissues), they were transferred into 50 mL conical tubes for downstream processing and imaging. After intraperitoneal lavage and sphere retrieval, remaining fibrosed intraperitoneal tissues were also excised for downstream FACS and expression analyses. Single-cell suspensions of freshly excised tissues were prepared using a gentle MACS Dissociator (Miltenyi Biotec, Auburn, Calif.) according to the manufacturer's protocol. Single-cell suspensions were prepared in a passive PEB dissociation buffer (1×PBS, pH 7.2, 0.5% BSA, and 2 mM EDTA) and suspensions were passed through 70 μm filters (Cat. #22363548, Fisher Scientific, Pittsburgh, Pa.). This process removed the majority of cells adhered to the surface (>90%). […]
compound,measurement,setting,value
"COc1ccc(COc2ccc(Cc3cnc(N)nc3N)cc2OC)cc1 [GW2580, 5-[[3-Methoxy-4-[(4-methoxyphenyl)methoxy]phenyl]methyl]-2,4-pyrimidinediamine]",fibrosis by phase contrast imaging and confocal microscopy,C57BL/6 mice [1],fibrosis free
same,crystals in IP lavage liquid (differential interference contrast imaging),"C57BL/6 mice [2]; 2 weeks after implantation, 1 week since last crystal injection",many crystals remained within the IP space
same,fibrosis of retrieved alginate microspheres (phase contrast),"C57BL/6 mice [2]; daily amorphous drug, 3 mg/day, total 45 mg over 2 weeks",fibrosis-free
same,macrophage levels on microspheres (FACS),"C57BL/6 mice [2]; naked crystals, 2 weeks",significant reductions in macrophage levels
same,fibrosis of retrieved alginate microspheres (phase contrast),"C57BL/6 mice [2]; naked drug crystals, 4.5 mg once per week, 9 mg total",fibrosis-free
same,fibrosis of retrieved alginate microspheres (phase contrast),C57BL/6 mice [2]; weekly amorphous drug,not effective
